Literature values in US20020010148A1, “Oral combinations of hydroxocobalamin and folic acid” (priority 1999, published 2002).

Tests used:
homocysteine levels = details: 0.4 mg hydroxocobalamin alone or with 0.5 mg/day or 5 mg/day folic acid, oral
[1] = oral doses of 1 mg or more; without intrinsic factor; dose-dependent
vitamin B12 deficiency = details: oral 1-2 mg/day; patients with pernicious anaemia

Row | Compound | contribution to lowering of homocysteine levels (homocysteine levels) | also measured
1 | C/C1=C2/[N-][C@H]([C@H](CC(N)=O)[C@@]2(C)CCC(=O)NC[C@@H](C)OP(=O)([O-])O[C@H]2[C@@H](O)[C@@H](n3cnc4cc(C)c(C)cc43)O[C@@H]2CO)[C@]2(C)N=C(/C(C)=C3N=C(/C=C4N=C1[C@@H](CCC(N)=O)C\4(C)C)[C@@H](CCC(N)=O)[C@]\3(C)CC(N)=O)[C@@H](CCC(N)=O)[C@]2(C)CC(N)=O.[Co+3].[OH-] [hydroxocobalamin] | contributed little | 
2 | Nc1nc2ncc(CNc3ccc(C(=O)N[C@@H](CCC(=O)O)C(=O)O)cc3)nc2c(=O)[nH]1 [folic acid] | main effect | 
3 | Vitamin B12 |  | passive absorption, share of the oral dose [1]: 1-2%
4 | cyanocobalamin |  | adequacy of oral dosing to provide vitamin B12 (vitamin B12 deficiency): fully adequate
